Results on 38 molecules are retold here after the Deep4Chem optical property database.

The data set can be described thus: solvent given as SMILES.

In the case of `Cc1cc(-c2ccc(C(C)(C)C)cc2)c2nsnc2c1-c1ccc(C(C)(C)C)cc1`, the absorption maximum (in ClCCl) came out at 376 nm.

Where the note is “in ClCCl”, `CCCCN1C(=O)c2cc(Oc3ccc(C(C)(C)C)cc3)c3c4c(Oc5ccc(C(C)(C)C)cc5)cc5c(=O)[nH]/c(=C\c6ccc7ccccc7n6)c6cc(Oc7ccc(C(C)(C)C)cc7)c(c7c(Oc8ccc(C(C)(C)C)cc8)cc(c2c37)C1=O)c4c56` gave an absorption maximum of 626 nm.

As for `CN(C)c1ccc2cc(C(/C=C/c3cn(C)c4ccccc34)=C(C#N)C#N)c(=O)oc2c1`, the absorption maximum (in C1CCOC1) is 455 nm; the absorption maximum (in C1COCCO1) was found to be 452 nm; the absorption maximum (in CN(C)C=O) was 471 nm; the absorption maximum (in CS(C)=O) is listed as 477 nm; the absorption maximum (in ClCCl) worked out at 461 nm.

For `CC1(C)c2ccccc2N(c2ccc3c(c2)Oc2ccccc2S3(=O)=O)c2ccccc21`, the absorption maximum (in Cc1ccccc1) is listed as 356 nm.

`CCOC(=O)c1c2c3c(ccc([N+](=O)[O-])c3c3cc4c(cc13)[Si](C)(C)O[Si]4(C)C)N(C)C2=O` yielded an absorption maximum (in CC#N) of 376 nm.

Take `COc1ccc(-c2[nH]c(=O)n3c2-c2ccccc2C3=O)c(OC)c1`: the absorption maximum by setting is: (in CC#N) 401 nm; (in CO) 401 nm; (in ClCCl) 406 nm.

In the case of `O=C1c2ccccc2-c2ccc(N3CCN(c4ccccc4)CC3)c3cccc1c23`, the absorption maximum by setting is: (in C1CCCCC1) 423 nm; (in C1CCOC1) 438 nm; (in C1COCCO1) 436.2 nm; (in CC1COC(=O)O1) 445.6 nm; (in CC#N) 444 nm; (in CC(C)=O) 441.2 nm. The absorption maximum by setting is: (in CCCCCCCCO) 445 nm; (in CCCCCO) 446 nm; (in CCCCO) 444 nm; (in CCCO) 445 nm; (in CCO) 446.8 nm; (in CCOC(C)=O) 436 nm. Besides, the absorption maximum reads like this: (in CN(C)C=O) 447.2 nm; (in CO) 445 nm; (in CS(C)=O) 452 nm; (in Cc1ccccc1) 435.8 nm; (in ClC(Cl)Cl) 443 nm.

With `Oc1ccc(/N=C/c2ccccc2Oc2ccccc2)cc1`, the absorption maximum (in C1CCCCC1) is listed as 348 nm; the absorption maximum (in C1COCCO1) turned out to be 341 nm; the absorption maximum (in CC#N) came out at 350 nm; the absorption maximum (in CC(C)=O) stood at 342 nm; the absorption maximum (in CC(C)CO) stood at 344 nm; the absorption maximum (in CC(C)O) worked out at 344 nm. Besides, the absorption maximum (in CCCCC) was determined as 341 nm; the absorption maximum (in CCCCCC) was 346 nm; the absorption maximum (in CCCCO) is 346 nm; the absorption maximum (in CCCCOC(C)=O) is recorded as 346 nm; the absorption maximum (in CCCO) was determined as 345 nm; the absorption maximum (in CCOC(C)=O) is recorded as 340 nm. For the same molecule, the absorption maximum reads like this: (in CCOCC) 345 nm; (in CN(C)C=O) 345 nm; (in CO) 342 nm; (in CS(C)=O) 348 nm; (in Cc1ccccc1) 342 nm; (in Cc1ccccc1C) 382 nm. The absorption maximum runs as follows: (in ClC(Cl)Cl) 343 nm; (in N#Cc1ccccc1) 341 nm; (in c1ccccc1) 345 nm.

Regarding `COc1ccc2cc(/C=C/c3nc(/C=C/c4ccc(N(C)C)cc4)cc(/C=C/c4ccc(N(C)C)cc4)n3)ccc2c1`, the absorption maximum (in ClCCl) was found to be 418 nm.

`O=c1c2ccccc2sc2ccc(-n3c4ccccc4c4ccccc43)cc12` showed an absorption maximum (in C1CCOC1) of 388 nm; an absorption maximum (in CCCCCC) of 388 nm; an absorption maximum (in Cc1ccccc1) of 388 nm; an absorption maximum (in ClC(Cl)Cl) of 388 nm; an absorption maximum (in ClCCl) of 388 nm.

On to `COc1ccc([C@@H]2C[C@](O)(c3ccccn3)C[C@](O)(c3ccccn3)[C@H]2C(=O)c2ccc(N(c3ccccc3)c3ccccc3)cc2)cc1`, for which the absorption maximum is 366 nm (in C1CCOC1); 366 nm (in CC#N); 366 nm (in CCO); 366 nm (in CCOC(C)=O); 358 nm (in CN(C)C=O); 370 nm (in ClCCl). For the same molecule, for the setting “in c1ccccc1”, the absorption maximum is 370 nm.

Consider `Cc1c2c(c(C)c3ccccc13)-c1cc3nc4ccccc4nc3cc1-2`, for which the absorption maximum (in ClC(Cl)Cl) is recorded as 448 nm.

In turn, `c1ccc(-c2nc(-c3ccccc3)nc(-c3ccc(N4c5ccccc5C5(c6ccccc64)c4ccccc4C4(c6ccccc6Sc6ccccc64)c4ccccc45)cc3)n2)cc1` yielded an absorption maximum (in Cc1ccccc1) of 394.63 nm.

Where the note is “in ClC(Cl)Cl”, `COc1ccc(-c2ncc3ccccn23)cc1` yielded an absorption maximum of 306 nm.

Turning to `O=P1(c2ccccc2)c2ccccc2-c2sc3ccccc3c21` (stereo unspecified), the absorption maximum (in C1CCCCC1) is listed as 327 nm, the absorption maximum (in CC#N) is 327 nm, the absorption maximum (in CCO) is on record as 329 nm and the absorption maximum (in ClCCl) was 329 nm.

Under “in ClC(Cl)Cl”, `CC[Si](C#Cc1c2c(=O)c3ccccc3c2c(C#C[Si](CC)(CC)CC)c2c(=O)c3ccccc3c12)(CC)CC` had an absorption maximum of 522 nm.

Turning to `O=C1/C(=C\c2ccc3oc4ccccc4c3c2)S(=O)(=O)c2ccccc21`, the absorption maximum turned out to be 368 nm (in C1CCOC1); 369 nm (in C1COCCO1); 365 nm (in CC#N); 365 nm (in CC(C)=O); 366 nm (in CCOC(C)=O); 367 nm (in CN(C)C=O). For the same molecule, the absorption maximum came to 367 nm (in CO); 369 nm (in CS(C)=O); 373 nm (in Cc1ccccc1); 378 nm (in ClC(Cl)Cl); 372 nm (in ClCCl).

Molecule `c1ccc2c(c1)ccc1ccc3ccc4ccccc4c3c12` displayed an absorption maximum (in ClC(Cl)Cl) of 393 nm.

Molecule `Cc1c2c(nc3ccccc13)-c1cc3c(cc1CC2)-c1nc2ccccc2c(C)c1CC3` gave an absorption maximum (in ClC(Cl)Cl) of 372 nm.

As to `Cc1c2ccccc2c(C2=C3C=CC=[N+]3[B-](F)(F)n3cccc32)c2ccccc12`, the absorption maximum amounted to 502 nm (in CC#N); 504 nm (in CCCCCC); 503 nm (in CCO); 506 nm (in CN(C)C=O); 508 nm (in Cc1ccccc1); 506 nm (in ClCCl).

For the molecule `COC(=O)c1cc(=O)n(C)c2cc(-c3ccc(N(C)C)cc3)sc12`, the absorption maximum is, setting by setting: (in CC#N) 428 nm; (in ClCCl) 434 nm.

Molecule `COc1ccc(C2=N/C(=C\c3ccccc3)C(=O)O2)cc1OC` had an absorption maximum (in C1COCCO1) of 378 nm.

In the case of `COc1ccc(-c2cnc(-c3cccnc3)o2)cc1OC`, the absorption maximum (in ClCCl) is on record as 330 nm.

Regarding `CNc1ccc2nc3cc(Cl)c(Cl)cc3nc2c1`, under “in CCO”, the absorption maximum stood at 490 nm.

On to `Cc1cc(C2(c3cc(C)c(O)c(Br)c3)OS(=O)(=O)c3ccccc32)cc(Br)c1O`, for which the absorption maximum is given as 396 nm (in C1CCOC1); 396 nm (in C1COCCO1); 398 nm (in CC#N); 411 nm (in CC(C)(C)O); 394 nm (in CC(C)=O); 413 nm (in CC(C)O). For the same molecule, the absorption maximum was 417 nm (in CCCCCO); 415 nm (in CCCO); 414 nm (in CCO); 395 nm (in CCOC(C)=O); 395 nm (in CCOCC).

The molecule `COc1ccc(C(=Cc2ccc(C=O)cc2)c2ccc(OC)cc2)cc1` gave an absorption maximum (in C1CCOC1) of 356 nm.

On to `CCCCCCCCN1c2ccc(C#Cc3ccc(F)cc3)cc2Sc2cc(C=O)ccc21`, for which the absorption maximum is, setting by setting: (in C1CCOC1) 378 nm; (in CC#N) 380.01 nm; (in CCCCCC) 376 nm; (in CO) 350 nm; (in CS(C)=O) 388 nm; (in Cc1ccccc1) 381.99 nm. Further, for the setting “in ClC(Cl)Cl”, the absorption maximum is reported as 391.99 nm.

Molecule `Cc1c2ccc3c(C)[n+](C)ccc3c2cc[n+]1C` had an absorption maximum (in CC#N) of 390 nm.

`CC1=c2cc3c(cc2=[N+]2C1=Cc1c4ccccc4c(C)n1[B-]2(F)F)C1=Cc2c4ccccc4c(C)n2[B-](F)(F)[N+]1=C3C` had an absorption maximum (in ClC(Cl)Cl) of 848 nm.

On to `N#Cc1ccc(-c2nc(-c3ccccc3)c3ccccn23)cc1`, for which the absorption maximum by setting is: (in C1CCCCC1) 377 nm; (in CC#N) 377 nm; (in CO) 372 nm; (in ClCCl) 380 nm; (in O) 430 nm.

For the setting “in ClCCl”, `CCCCCCCCCn1c(-c2cc(-c3nc4ccccc4n3CCCCCCCCC)cc(-c3nc4ccccc4n3CCCCCCCCC)c2)nc2ccccc21` displayed an absorption maximum of 300 nm.

As for `COc1cc(OC)c2c(c1)C(=O)c1ccc(OC)cc1-2`, the absorption maximum is listed as 422 nm (in C1CCCCC1), 441 nm (in CC#N) and 442 nm (in CCO).

For `CCCCOc1c(C#N)cc2cc(C#N)c(OCCCC)c3c4c(OCCCC)c(C#N)cc5cc(C#N)c(OCCCC)c(c1c23)c54`, the absorption maximum (in ClCCl) turned out to be 454 nm.

Take `C1=CC2C=c3c(cc4cccc5cc6ccccc6c3c45)C3=c4ccccc4=CC(=C1)C32` (stereo unspecified): the absorption maximum (in ClCCl) is reported as 592 nm.

With `CCCCCCc1cc2/c(=C(\C#N)C(=O)OC)s/c(=c3/s/c(=C(/C#N)C(=O)OC)c4cc(CCCCCC)sc34)c2s1`, the absorption maximum (in Cc1ccccc1) was found to be 580 nm.

`c1ccc(-c2nc(-c3ccccc3)n3ccccc23)cc1`: the absorption maximum is reported as 302 nm (in C1CCCCC1); 305 nm (in CC#N); 301 nm (in CO); 308 nm (in ClC(Cl)Cl); 385 nm (in ClCCl); 305 nm (in O).

As for `COc1ccc2c(c1)c1cc(OC)ccc1n2-c1nc2ccccc2nc1-n1c2ccc(OC)cc2c2cc(OC)ccc21`, the absorption maximum (in Cc1ccccc1) amounted to 437 nm.

`CC(C)(C)n1c(=O)c2cc3ccc4cccc5ccc(c2c1=O)c3c45` registered an absorption maximum (in ClC(Cl)Cl) of 423 nm.
